pKd: −log10 of the molar value.
Experiments:
Gal-1 = molecular target: T1, Gal-1 (Homo sapiens, UniProt P09382); experiment: Pull-down assay with immobilized protein and LSM libraries; type: binding; conditions: H12 library; 1:1 binding assumed; read-out: Surface mapping KD (apparent)
T1 construct: made in house; host or cells: E. coli BL21(DE3)
Method in brief: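 His-tagged protein immobilized on Co-NTA resin (64 µM) in 20 mM HEPES pH 7.4, 150 mM NaCl, equilibrated 30 min at room temperature with foldamer LSM sublibraries at equimolar total concentration. Unbound fractions quantified by HPLC-MS versus protein-free resin control; apparent KD assumes 1:1 binding.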

S100B = molecular target: T2, S100B (Homo sapiens, UniProt P04271); experiment: as above; type: binding; conditions: H12 library; 1:1 binding assumed; read-out: Surface mapping KD (apparent)
T2 construct: made in house; host or cells: Escherichia coli BL21(DE3)
T2 sequence (P04271 1-92): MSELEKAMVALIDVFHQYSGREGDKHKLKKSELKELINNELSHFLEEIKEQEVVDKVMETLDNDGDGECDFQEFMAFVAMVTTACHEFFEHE
Method in brief: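 Buffers were HEPES pH 7.4 with 150 mM NaCl, plus 1 mM TCEP and 1 mM CaCl2 (50 mM HEPES) for S100A4 and S100B, 1 mM TCEP for Gal-1, and no additive for RecQ-WH. Immobilized protein at 64 µM was equilibrated 30 min with the LSM sublibrary, and unbound probes were measured by LC-MS.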

T1 sequence (P09382 whole entry): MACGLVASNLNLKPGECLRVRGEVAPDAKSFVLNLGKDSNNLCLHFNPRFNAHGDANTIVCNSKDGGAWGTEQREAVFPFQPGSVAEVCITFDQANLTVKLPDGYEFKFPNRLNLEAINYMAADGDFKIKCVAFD

SMILES: NC(=O)[C@H]1CCC[C@@H]1NC(=O)[C@H]1CCC[C@@H]1NC(=O)C[C@H](CCC(=O)O)NC(=O)[C@H]1CCC[C@@H]1NC(=O)[C@H]1CCC[C@@H]1NC(=O)C[C@H](Cc1ccccc1)NC(=O)[C@H]1CCC[C@@H]1NC(=O)[C@H]1CCC[C@@H]1N [H12 FE]
- pKd (Gal-1): 3.70
- pKd (S100B): 3.41

SMILES: NC(=O)C[C@@H](CC(=O)N[C@H]1CCC[C@@H]1C(=O)N[C@H]1CCC[C@@H]1C(N)=O)NC(=O)[C@H]1CCC[C@@H]1NC(=O)[C@H]1CCC[C@@H]1NC(=O)C[C@H](Cc1ccccc1)NC(=O)[C@H]1CCC[C@@H]1NC(=O)[C@H]1CCC[C@@H]1N [H12 FN]
- pKd (Gal-1): 3.65
- pKd (S100B): 3.96

SMILES: NC(=O)CC[C@@H](CC(=O)N[C@H]1CCC[C@@H]1C(=O)N[C@H]1CCC[C@@H]1C(N)=O)NC(=O)[C@H]1CCC[C@@H]1NC(=O)[C@H]1CCC[C@@H]1NC(=O)C[C@H](Cc1ccccc1)NC(=O)[C@H]1CCC[C@@H]1NC(=O)[C@H]1CCC[C@@H]1N [H12 FQ]
- pKd (Gal-1): 3.68
- pKd (S100B): 3.98

SMILES: NC(=O)[C@H]1CCC[C@@H]1NC(=O)[C@H]1CCC[C@@H]1NC(=O)C[C@H](CO)NC(=O)[C@H]1CCC[C@@H]1NC(=O)[C@H]1CCC[C@@H]1NC(=O)C[C@H](Cc1ccccc1)NC(=O)[C@H]1CCC[C@@H]1NC(=O)[C@H]1CCC[C@@H]1N [H12 FS]
- pKd (Gal-1): 3.57
- pKd (S100B): 3.51

SMILES: C[C@@H](O)[C@@H](CC(=O)N[C@H]1CCC[C@@H]1C(=O)N[C@H]1CCC[C@@H]1C(N)=O)NC(=O)[C@H]1CCC[C@@H]1NC(=O)[C@H]1CCC[C@@H]1NC(=O)C[C@H](Cc1ccccc1)NC(=O)[C@H]1CCC[C@@H]1NC(=O)[C@H]1CCC[C@@H]1N [H12 FT]
- pKd (Gal-1): 3.60
- pKd (S100B): 4.07

SMILES: CC[C@H](C)[C@@H](CC(=O)N[C@H]1CCC[C@@H]1C(=O)N[C@H]1CCC[C@@H]1C(=O)N[C@@H](C)CC(=O)N[C@H]1CCC[C@@H]1C(=O)N[C@H]1CCC[C@@H]1C(N)=O)NC(=O)[C@H]1CCC[C@@H]1NC(=O)[C@H]1CCC[C@@H]1N [H12 IA]
- pKd (Gal-1): 3.33
- pKd (S100B): 3.60

SMILES: CC[C@H](C)[C@@H](CC(=O)N[C@H]1CCC[C@@H]1C(=O)N[C@H]1CCC[C@@H]1C(=O)N[C@@H](CO)CC(=O)N[C@H]1CCC[C@@H]1C(=O)N[C@H]1CCC[C@@H]1C(N)=O)NC(=O)[C@H]1CCC[C@@H]1NC(=O)[C@H]1CCC[C@@H]1N [H12 IS]
- pKd (Gal-1): 3.31
- pKd (S100B): 3.44

SMILES: NCCCC[C@@H](CC(=O)N[C@H]1CCC[C@@H]1C(=O)N[C@H]1CCC[C@@H]1C(=O)N[C@@H](CC(=O)O)CC(=O)N[C@H]1CCC[C@@H]1C(=O)N[C@H]1CCC[C@@H]1C(N)=O)NC(=O)[C@H]1CCC[C@@H]1NC(=O)[C@H]1CCC[C@@H]1N [H12 KD]
- pKd (Gal-1): 3.54
- pKd (S100B): 3.83

SMILES: NCCCC[C@@H](CC(=O)N[C@H]1CCC[C@@H]1C(=O)N[C@H]1CCC[C@@H]1C(N)=O)NC(=O)[C@H]1CCC[C@@H]1NC(=O)[C@H]1CCC[C@@H]1NC(=O)C[C@H](CCCCN)NC(=O)[C@H]1CCC[C@@H]1NC(=O)[C@H]1CCC[C@@H]1N [H12 KK]
- pKd (Gal-1): 3.64
- pKd (S100B): 3.75

SMILES: CSCC[C@@H](CC(=O)N[C@H]1CCC[C@@H]1C(=O)N[C@H]1CCC[C@@H]1C(N)=O)NC(=O)[C@H]1CCC[C@@H]1NC(=O)[C@H]1CCC[C@@H]1NC(=O)C[C@H](CCCCN)NC(=O)[C@H]1CCC[C@@H]1NC(=O)[C@H]1CCC[C@@H]1N [H12 KM]
- pKd (Gal-1): 3.55
- pKd (S100B): 3.82

SMILES: NCCCC[C@@H](CC(=O)N[C@H]1CCC[C@@H]1C(=O)N[C@H]1CCC[C@@H]1C(=O)N[C@@H](CCC(N)=O)CC(=O)N[C@H]1CCC[C@@H]1C(=O)N[C@H]1CCC[C@@H]1C(N)=O)NC(=O)[C@H]1CCC[C@@H]1NC(=O)[C@H]1CCC[C@@H]1N [H12 KQ]
- pKd (Gal-1): 3.53
- pKd (S100B): 3.52

SMILES: NCCCC[C@@H](CC(=O)N[C@H]1CCC[C@@H]1C(=O)N[C@H]1CCC[C@@H]1C(=O)N[C@@H](CO)CC(=O)N[C@H]1CCC[C@@H]1C(=O)N[C@H]1CCC[C@@H]1C(N)=O)NC(=O)[C@H]1CCC[C@@H]1NC(=O)[C@H]1CCC[C@@H]1N [H12 KS]
- pKd (Gal-1): 3.53
- pKd (S100B): 3.65

SMILES: CC(C)[C@@H](CC(=O)N[C@H]1CCC[C@@H]1C(=O)N[C@H]1CCC[C@@H]1C(N)=O)NC(=O)[C@H]1CCC[C@@H]1NC(=O)[C@H]1CCC[C@@H]1NC(=O)C[C@H](CCCCN)NC(=O)[C@H]1CCC[C@@H]1NC(=O)[C@H]1CCC[C@@H]1N [H12 KV]
- pKd (Gal-1): 3.66
- pKd (S100B): 3.71

SMILES: NCCCC[C@@H](CC(=O)N[C@H]1CCC[C@@H]1C(=O)N[C@H]1CCC[C@@H]1C(=O)N[C@H](CC(=O)N[C@H]1CCC[C@@H]1C(=O)N[C@H]1CCC[C@@H]1C(N)=O)Cc1ccc(O)cc1)NC(=O)[C@H]1CCC[C@@H]1NC(=O)[C@H]1CCC[C@@H]1N [H12 KY]
- pKd (Gal-1): 3.64
- pKd (S100B): 3.86

SMILES: CC(C)C[C@@H](CC(=O)N[C@H]1CCC[C@@H]1C(=O)N[C@H]1CCC[C@@H]1C(=O)N[C@@H](C)CC(=O)N[C@H]1CCC[C@@H]1C(=O)N[C@H]1CCC[C@@H]1C(N)=O)NC(=O)[C@H]1CCC[C@@H]1NC(=O)[C@H]1CCC[C@@H]1N [H12 LA]
- pKd (Gal-1): 3.36
- pKd (S100B): 3.53

SMILES: CC(C)C[C@@H](CC(=O)N[C@H]1CCC[C@@H]1C(=O)N[C@H]1CCC[C@@H]1C(=O)N[C@@H](CC(N)=O)CC(=O)N[C@H]1CCC[C@@H]1C(=O)N[C@H]1CCC[C@@H]1C(N)=O)NC(=O)[C@H]1CCC[C@@H]1NC(=O)[C@H]1CCC[C@@H]1N [H12 LN]
- pKd (Gal-1): 3.37
- pKd (S100B): 3.58

SMILES: CC(C)C[C@@H](CC(=O)N[C@H]1CCC[C@@H]1C(=O)N[C@H]1CCC[C@@H]1C(=O)N[C@@H](CCC(N)=O)CC(=O)N[C@H]1CCC[C@@H]1C(=O)N[C@H]1CCC[C@@H]1C(N)=O)NC(=O)[C@H]1CCC[C@@H]1NC(=O)[C@H]1CCC[C@@H]1N [H12 LQ]
- pKd (Gal-1): 3.35
- pKd (S100B): 3.46

SMILES: CSCC[C@@H](CC(=O)N[C@H]1CCC[C@@H]1C(=O)N[C@H]1CCC[C@@H]1C(=O)N[C@@H](C)CC(=O)N[C@H]1CCC[C@@H]1C(=O)N[C@H]1CCC[C@@H]1C(N)=O)NC(=O)[C@H]1CCC[C@@H]1NC(=O)[C@H]1CCC[C@@H]1N [H12 MA]
- pKd (Gal-1): 3.71
- pKd (S100B): 3.65

SMILES: CSCC[C@@H](CC(=O)N[C@H]1CCC[C@@H]1C(=O)N[C@H]1CCC[C@@H]1C(=O)N[C@@H](CC(=O)O)CC(=O)N[C@H]1CCC[C@@H]1C(=O)N[C@H]1CCC[C@@H]1C(N)=O)NC(=O)[C@H]1CCC[C@@H]1NC(=O)[C@H]1CCC[C@@H]1N [H12 MD]
- pKd (Gal-1): 3.77
- pKd (S100B): 3.33

SMILES: CSCC[C@@H](CC(=O)N[C@H]1CCC[C@@H]1C(=O)N[C@H]1CCC[C@@H]1C(=O)N[C@@H](CCC(=O)O)CC(=O)N[C@H]1CCC[C@@H]1C(=O)N[C@H]1CCC[C@@H]1C(N)=O)NC(=O)[C@H]1CCC[C@@H]1NC(=O)[C@H]1CCC[C@@H]1N [H12 ME]
- pKd (Gal-1): 3.74
- pKd (S100B): 3.38

SMILES: CSCC[C@@H](CC(=O)N[C@H]1CCC[C@@H]1C(=O)N[C@H]1CCC[C@@H]1C(=O)N[C@@H](CCCCN)CC(=O)N[C@H]1CCC[C@@H]1C(=O)N[C@H]1CCC[C@@H]1C(N)=O)NC(=O)[C@H]1CCC[C@@H]1NC(=O)[C@H]1CCC[C@@H]1N [H12 MK]
- pKd (Gal-1): 3.76
- pKd (S100B): 4.11

SMILES: CSCC[C@@H](CC(=O)N[C@H]1CCC[C@@H]1C(=O)N[C@H]1CCC[C@@H]1C(N)=O)NC(=O)[C@H]1CCC[C@@H]1NC(=O)[C@H]1CCC[C@@H]1NC(=O)C[C@H](CCSC)NC(=O)[C@H]1CCC[C@@H]1NC(=O)[C@H]1CCC[C@@H]1N [H12 MM]
- pKd (Gal-1): 3.44
- pKd (S100B): 3.78

SMILES: CSCC[C@@H](CC(=O)N[C@H]1CCC[C@@H]1C(=O)N[C@H]1CCC[C@@H]1C(=O)N[C@@H](CC(N)=O)CC(=O)N[C@H]1CCC[C@@H]1C(=O)N[C@H]1CCC[C@@H]1C(N)=O)NC(=O)[C@H]1CCC[C@@H]1NC(=O)[C@H]1CCC[C@@H]1N [H12 MN]
- pKd (Gal-1): 3.71
- pKd (S100B): 3.75

SMILES: CSCC[C@@H](CC(=O)N[C@H]1CCC[C@@H]1C(=O)N[C@H]1CCC[C@@H]1C(=O)N[C@@H](CCC(N)=O)CC(=O)N[C@H]1CCC[C@@H]1C(=O)N[C@H]1CCC[C@@H]1C(N)=O)NC(=O)[C@H]1CCC[C@@H]1NC(=O)[C@H]1CCC[C@@H]1N [H12 MQ]
- pKd (Gal-1): 3.76
- pKd (S100B): 3.72

SMILES: CSCC[C@@H](CC(=O)N[C@H]1CCC[C@@H]1C(=O)N[C@H]1CCC[C@@H]1C(=O)N[C@@H](CO)CC(=O)N[C@H]1CCC[C@@H]1C(=O)N[C@H]1CCC[C@@H]1C(N)=O)NC(=O)[C@H]1CCC[C@@H]1NC(=O)[C@H]1CCC[C@@H]1N [H12 MS]
- pKd (Gal-1): 3.65
- pKd (S100B): 3.67

SMILES: CSCC[C@@H](CC(=O)N[C@H]1CCC[C@@H]1C(=O)N[C@H]1CCC[C@@H]1C(=O)N[C@H](CC(=O)N[C@H]1CCC[C@@H]1C(=O)N[C@H]1CCC[C@@H]1C(N)=O)[C@@H](C)O)NC(=O)[C@H]1CCC[C@@H]1NC(=O)[C@H]1CCC[C@@H]1N [H12 MT]
- pKd (Gal-1): 3.77
- pKd (S100B): 3.79

SMILES: N=C(N)NCCC[C@@H](CC(=O)N[C@H]1CCC[C@@H]1C(=O)N[C@H]1CCC[C@@H]1C(N)=O)NC(=O)[C@H]1CCC[C@@H]1NC(=O)[C@H]1CCC[C@@H]1NC(=O)C[C@H](CCC(N)=O)NC(=O)[C@H]1CCC[C@@H]1NC(=O)[C@H]1CCC[C@@H]1N [H12 QR]
- pKd (Gal-1): 3.37
- pKd (S100B): 3.49

SMILES: C[C@@H](CC(=O)N[C@H]1CCC[C@@H]1C(=O)N[C@H]1CCC[C@@H]1C(N)=O)NC(=O)[C@H]1CCC[C@@H]1NC(=O)[C@H]1CCC[C@@H]1NC(=O)C[C@H](CCCNC(=N)N)NC(=O)[C@H]1CCC[C@@H]1NC(=O)[C@H]1CCC[C@@H]1N [H12 RA]
- pKd (Gal-1): 3.31
- pKd (S100B): 3.69

SMILES: C[C@@H](O)[C@@H](CC(=O)N[C@H]1CCC[C@@H]1C(=O)N[C@H]1CCC[C@@H]1C(N)=O)NC(=O)[C@H]1CCC[C@@H]1NC(=O)[C@H]1CCC[C@@H]1NC(=O)C[C@H](CCCNC(=N)N)NC(=O)[C@H]1CCC[C@@H]1NC(=O)[C@H]1CCC[C@@H]1N [H12 RT]
- pKd (Gal-1): 3.67
- pKd (S100B): 3.88
